These are literature values, as cited in patent publication US20050042268A1, “Pharmaceutical composition and method for transdermal drug delivery” (priority 2003, published 2005).

Molecules are shown by their SMILES.

In the case of `C[C@]12CC[C@H]3[C@@H](CCC4=CC(=O)CC[C@@]43C)[C@@H]1CC[C@@H]2O` [testosterone], the “free testosterone as part of the total concentration in the blood” value is 4 to 8% and the “testosterone in the blood bound to protein” value is reported as “Over 90%”.
